# ChEMBL document CHEMBL3885861, “Open TG-GATES”
# Species: Rattus norvegicus
# Experiment: Open TG-GATES - Regimen: Single
# Assay type: toxicity, organism-based, Sprague-Dawley
# Parameters: regimen Single, gender Male, age 6 weeks
# Conditions: in vivo, po, 300 mg/kg, route gavage, dose level High; for APTT / Bas / Eos / Fbg / Hb / Ht / Lym / MCH / MCHC / MCV / Mono / Neu / PT / Plat / RBC / Ret / WBC: tissue Blood; for KIDNEY_L / KIDNEY_R / KIDNEY_TOTAL: tissue Kidney; for LIVER: tissue Liver; for A/G / ALP / ALT / AST / BUN / CRE / Ca / Cl / DBIL / GLC / IP / K / LDH / Na / PL / RALB / TBIL / TC / TG / TP / gamma-GTP: tissue Plasma
structure (smiles),measurement,setting,value
CC[C@H]1[C@@H]2C[C@H]3[C@@H]4N(C)c5ccccc5[C@]45C[C@@H]([C@@H]2[C@H]5O)N3[C@@H]1O [AJMALINE],TERMINAL_BW,3 h,194.9 g
same,APTT,3 h,17 s
same,Bas,3 h,0%
same,Eos,3 h,0.6%
same,Fbg,3 h,201.8 mg/dL
same,Hb,3 h,13 g/dL
same,Ht,3 h,39.5%
same,Lym,3 h,80.6%
same,MCH,3 h,21.3 pg
same,MCHC,3 h,32.8%
same,MCV,3 h,64.8 fL
same,Mono,3 h,6.4%
same,Neu,3 h,12.6%
same,PT,3 h,11.9 s
same,Plat,3 h,106.2 x10_4/uL
same,RBC,3 h,611.2 x10_4/ul
same,Ret,3 h,11.5%
same,WBC,3 h,94.5 x10_2/uL
same,KIDNEY_L,3 h,0.9 g
same,KIDNEY_R,3 h,0.9 g
same,KIDNEY_TOTAL,3 h,1.9 g
same,LIVER,3 h,9.2 g
same,A/G,3 h,2.3
same,ALP,3 h,955.4 IU/L
same,ALT,3 h,34 IU/L
same,AST,3 h,64.6 IU/L
same,BUN,3 h,13.2 mg/dL
same,CRE,3 h,0.4 mg/dL
same,Ca,3 h,10.6 mg/dL
same,Cl,3 h,103.6 meq/L
same,DBIL,3 h,0.018 mg/dL
same,GLC,3 h,184.6 mg/dL
same,IP,3 h,8.9 mg/dL
same,K,3 h,4.4 meq/L
same,LDH,3 h,108.4 IU/L
same,Na,3 h,137.8 meq/L
same,PL,3 h,135 mg/dL
same,RALB,3 h,3.7 g/dL
same,TBIL,3 h,0.4 mg/dL
same,TC,3 h,71.4 mg/dL
same,TG,3 h,57.8 mg/dL
same,TP,3 h,5.3 g/dL
same,gamma-GTP,3 h,1 IU/L
same,TERMINAL_BW,6 h,195.8 g
same,APTT,6 h,17.3 s
same,Bas,6 h,0%
same,Eos,6 h,1.2%
same,Fbg,6 h,211.8 mg/dL
same,Hb,6 h,13.1 g/dL
same,Ht,6 h,40%
same,Lym,6 h,69.2%
same,MCH,6 h,21.6 pg
same,MCHC,6 h,32.7%
same,MCV,6 h,66 fL
same,Mono,6 h,8.8%
same,Neu,6 h,20.6%
same,PT,6 h,11.8 s
same,Plat,6 h,109.7 x10_4/uL
same,RBC,6 h,607 x10_4/ul
same,Ret,6 h,11.3%
same,WBC,6 h,82.2 x10_2/uL
same,KIDNEY_L,6 h,0.9 g
same,KIDNEY_R,6 h,1 g
same,KIDNEY_TOTAL,6 h,1.9 g
same,LIVER,6 h,9 g
same,A/G,6 h,2.1
same,ALP,6 h,795 IU/L
same,ALT,6 h,32.2 IU/L
same,AST,6 h,64.6 IU/L
same,BUN,6 h,10.4 mg/dL
same,CRE,6 h,0.5 mg/dL
same,Ca,6 h,10.8 mg/dL
same,Cl,6 h,102.6 meq/L
same,DBIL,6 h,0.062 mg/dL
same,GLC,6 h,184.6 mg/dL
same,IP,6 h,9.2 mg/dL
same,K,6 h,4.6 meq/L
same,LDH,6 h,93.2 IU/L
same,Na,6 h,137.2 meq/L
same,PL,6 h,142.6 mg/dL
same,RALB,6 h,3.7 g/dL
same,TBIL,6 h,0.4 mg/dL
same,TC,6 h,77.8 mg/dL
same,TG,6 h,40.2 mg/dL
same,TP,6 h,5.4 g/dL
same,gamma-GTP,6 h,1.8 IU/L
same,TERMINAL_BW,9 h,189 g
same,APTT,9 h,16.4 s
same,Bas,9 h,0%
same,Eos,9 h,1.4%
same,Fbg,9 h,215.8 mg/dL
same,Hb,9 h,13.2 g/dL
same,Ht,9 h,40.1%
same,Lym,9 h,72.8%
same,MCH,9 h,21.2 pg
same,MCHC,9 h,32.9%
same,MCV,9 h,64.4 fL
same,Mono,9 h,8%
same,Neu,9 h,18.4%
same,PT,9 h,11.9 s
same,Plat,9 h,117.8 x10_4/uL
same,RBC,9 h,623.8 x10_4/ul
same,Ret,9 h,11.7%
same,WBC,9 h,70.8 x10_2/uL
same,KIDNEY_L,9 h,0.9 g
same,KIDNEY_R,9 h,0.9 g
same,KIDNEY_TOTAL,9 h,1.7 g
same,LIVER,9 h,8.5 g
same,A/G,9 h,2.3
same,ALP,9 h,780.6 IU/L
same,ALT,9 h,31 IU/L
same,AST,9 h,62.8 IU/L
same,BUN,9 h,13.2 mg/dL
same,CRE,9 h,0.6 mg/dL
same,Ca,9 h,10.5 mg/dL
same,Cl,9 h,103.6 meq/L
same,DBIL,9 h,0.078 mg/dL
same,GLC,9 h,178 mg/dL
same,IP,9 h,10.1 mg/dL
same,K,9 h,5 meq/L
same,LDH,9 h,113.8 IU/L
same,Na,9 h,138.4 meq/L
same,PL,9 h,146.4 mg/dL
same,RALB,9 h,3.8 g/dL
same,TBIL,9 h,0.4 mg/dL
same,TC,9 h,87.8 mg/dL
same,TG,9 h,50 mg/dL
same,TP,9 h,5.4 g/dL
same,gamma-GTP,9 h,1 IU/L
same,TERMINAL_BW,24 h,206.4 g
same,APTT,24 h,16 s
same,Bas,24 h,0%
same,Eos,24 h,1%
same,Fbg,24 h,199.4 mg/dL
same,Hb,24 h,13 g/dL
same,Ht,24 h,39.3%
same,Lym,24 h,79.8%
same,MCH,24 h,21.6 pg
same,MCHC,24 h,33%
same,MCV,24 h,65.5 fL
same,Mono,24 h,6.8%
same,Neu,24 h,12.6%
same,PT,24 h,11.8 s
same,Plat,24 h,108 x10_4/uL
same,RBC,24 h,599.6 x10_4/ul
same,Ret,24 h,9.9%
same,WBC,24 h,77.5 x10_2/uL
same,KIDNEY_L,24 h,1 g
same,KIDNEY_R,24 h,1 g
same,KIDNEY_TOTAL,24 h,1.9 g
same,LIVER,24 h,9.9 g
same,A/G,24 h,2.2
same,ALP,24 h,860.6 IU/L
same,ALT,24 h,37.4 IU/L
same,AST,24 h,69 IU/L
same,BUN,24 h,18 mg/dL
same,CRE,24 h,0.6 mg/dL
same,Ca,24 h,11 mg/dL
same,Cl,24 h,101.4 meq/L
same,DBIL,24 h,0.03 mg/dL
same,GLC,24 h,196.4 mg/dL
same,IP,24 h,9.1 mg/dL
same,K,24 h,4.6 meq/L
same,LDH,24 h,109.4 IU/L
same,Na,24 h,139.4 meq/L
same,PL,24 h,149.4 mg/dL
same,RALB,24 h,3.7 g/dL
same,TBIL,24 h,0.4 mg/dL
same,TC,24 h,83.8 mg/dL
same,TG,24 h,99 mg/dL
same,TP,24 h,5.3 g/dL
same,gamma-GTP,24 h,0.8 IU/L
